“And” between values parts separate entries of the source, which are not always exact repeats. Equal values may be shown once.
What was measured:
Assay in all cases: Post-emergence application in field trials (Example A)
Assay type in all cases: in vivo
[1] = tested on: LOLMU (Lolium multiflorum); details: growth stage 22-25, height 20-25 cm
Description: (§1) In the examples below, using the method of S. R. Colby (1967) “Calculating synergistic and antagonistic responses of herbicide combinations”, Weeds 15, p. 22ff., the value E, which is expected if the activity of the individual active compounds is only additive, was calculated:
(§2) [formula] • where • X=percent activity using active herbicide A at an application rate a; • Y=percent activity using active herbicide B (e.g. glufosinate) at an application rate b; • E=expected activity (in %) by A+B at application rates a+b.
(§3) If the value found experimentally is higher than the value E calculated according to Colby, a synergistic effect is present.
(§4) On field test sites, natural weed infestation or seeded weeds were treated post-emergence of the weeds.
(§5) In the field trials, the weeds were treated as indicated below.
(§6) In the following experiments, the herbicidal activity for the individual herbicidal compositions (solo and mixture applications) was assessed at the indicated days after treatment (DAT). The assessments for the damage on undesired weeds caused by the composition was carried out using a scale from 0 to 100%, compared to the untreated control plants. Here, 0 means no damage and 100 means complete destruction of the plants.

[2] = tested on: ECHCG (Echinocloa crus-galli); details: growth stage 23-30, height 15-20 cm
Description: as §1, §2, §3, §4, §5, §6

[3] = tested on: DIGSA (Digitaria sanguinalis); details: height 10-15 cm
Description: as §1, §2, §3, §4, §5, §6

[4] = tested on: GLXMA (Glycine max); details: 42 DAT, growth stage 13, height 5-10 cm
Description: as §1, §2, §3, §4, §5, §6

[5] = tested on: HORVW (Hordeum vulgare (winter barley)); details: growth stage 23-29, height 20-25 cm
Description: as §1, §2, §3, §4, §5, §6

[6] = tested on: ZEAMX (Zea mays); details: C-4 12.5 g ai/ha, growth stage 15-16
Description: as §1, §2, §3, §4, §5, §6

[7] = tested on: SETVE (Setaria verticillata); details: 42 DAT; C-4 12.5 g ai/ha; growth stage 21-23; height 8-16 cm
Description: as §1, §2, §3, §4, §5, §6

**Q.** Which results are given for `CC(C)N(C)S(=O)(=O)NC(=O)c1cc(-n2c(=O)cc(C(F)(F)F)n(C)c2=O)c(F)cc1Cl` [C-1, saflufenacil]?
**A.** % Herbicidal activity ([1]; 7 DAT, C-1 12.5 g ai/ha): 20%; % Herbicidal activity ([1]; 28 DAT, C-1 12.5 g ai/ha): 20%; % Herbicidal activity ([2]; 7 DAT, C-1 12.5 g ai/ha): 20%; % Herbicidal activity ([2]; 28 DAT, C-1 12.5 g ai/ha): 20%; % Herbicidal activity ([3]; 20 DAT, C-1 12.5 g ai/ha, growth stage 21-22): 20%; % Herbicidal activity ([4]; C-1 12.5 g ai/ha): 60%; % Herbicidal activity ([5]; 7 DAT, C-1 12.5 g ai/ha): 20%

**Q.** Which results are given for `C#CCN1C(=O)C(F)(F)Oc2cc(F)c(-n3c(=O)n(C)c(=S)n(C)c3=O)cc21` [C-4, trifludimoxazin]?
**A.** % Herbicidal activity ([1]; 7 DAT, C-4 12.5 g ai/ha): 40%; % Herbicidal activity ([1]; 28 DAT, C-4 12.5 g ai/ha): 30%; % Herbicidal activity ([2]; 7 DAT, C-4 12.5 g ai/ha): 40%; % Herbicidal activity ([2]; 21 DAT, C-4 12.5 g ai/ha): 20%; % Herbicidal activity ([2]; 28 DAT, C-4 12.5 g ai/ha): 40% and 20%; % Herbicidal activity ([3]; 7 DAT, C-4 12.5 g ai/ha, growth stage 22): 40%; % Herbicidal activity ([3]; 21 DAT, C-4 12.5 g ai/ha, growth stage 22): 40%; % Herbicidal activity ([3]; 41 DAT, C-4 12.5 g ai/ha, growth stage 22): 25%; % Herbicidal activity ([3]; 42 DAT, C-4 12.5 g ai/ha, growth stage 22): 25%; % Herbicidal activity ([4]; C-4 12.5 g ai/ha): 60%; % Herbicidal activity ([6]; 21 DAT, height 27-33 cm): 30%; % Herbicidal activity ([6]; 28 DAT, height 50-60 cm): 30%; % Herbicidal activity ([6]; 42 DAT, height 27-33 cm): 25% and 20%; % Herbicidal activity ([5]; 7 DAT, C-4 12.5 g ai/ha): 40% and 30%; % Herbicidal activity ([5]; 21 DAT, C-4 12.5 g ai/ha): 30%; % Herbicidal activity [7]: 25%

Source: patent US12532889B2, “Herbicidal compositions comprising glufosinate” (BASF SE, priority 2023, dated 2026)
